This assay deals with XBP1s-luc 293 LUC. Description: cellular PD assay, XBP1s-LUC reporter (Example 903). It is filed as cell-based. Conditions: read-out: XBP1s-luc 293 LUC (IC50). The method, boiled down: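 Cellular IRE1α pathway activity was quantified from the luciferase signal of an XBP1-Luc reporter, where the luciferase fusion is in frame and expressed only from the spliced XBP1 transcript.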

Molecules are shown by their SMILES. pIC50: −log10 of the molar value. Where a name gives a salt, the structure may show the parent alone. Read-outs that look alike come from different tables or passages of the source.

With `Cc1ccc2c(NS(=O)(=O)CC3CCCO3)cccc2c1Oc1ncccc1-c1ccnc(N[C@H]2CCCNC2)n1` (stereo partly drawn) [Example 141, N-(6-Methyl-5-((3-(2-((S)-piperidin-3-ylamino)pyrimidin-4-yl)pyridin-2-yl)oxy)naphthalen-1-yl)-1-(tetrahydrofuran-2-yl)methanesulfonamide], the pIC50 (usually the IC50 on a negative log10 scale, so that one unit is a factor of ten) (Table 1) is 6.34. `Cc1c(F)c(NS(=O)(=O)Cc2ccccc2)c2ccccc2c1Oc1ncccc1-c1ccnc(N[C@H]2CCCNC2)n1` [Example 480, (S)—N-(2-Fluoro-3-methyl-4-((3-(2-(piperidin-3-ylamino)pyrimidin-4-yl)pyridin-2-yl)oxy)naphthalen-1-yl)-1-phenylmethanesulfonamide]: under “Table 2”, the pIC50 was 8.15.

For the compound `Cc1ccc2c(NS(=O)(=O)C3CCCCC3)cccc2c1Oc1ncccc1-c1ccnc(N[C@H]2CCCNC2)n1` [Example 140, (S)—N-(6-Methyl-5-((3-(2-(piperidin-3-ylamino)pyrimidin-4-yl)pyridin-2-yl)oxy)naphthalen-1-yl)cyclohexanesulfonamide], the pIC50 (Table 1) was 6.75. The same measure, in the same setting: with `Cc1cc(NS(=O)(=O)Cc2ccccc2)c2ccccc2c1Oc1ncccc1-c1ccnc(N[C@H]2CCCNC2)n1` [Example 163, (S)—N-(3-Methyl-4-((3-(2-(piperidin-3-ylamino)pyrimidin-4-yl)pyridin-2-yl)oxy)naphthalen-1-yl)-1-phenylmethanesulfonamide] the figure was 7.33. On to `Cc1ccc2c(NS(=O)(=O)CCC(C)(F)F)c(F)ccc2c1Oc1ncccc1-c1ccnc(N[C@@H]2CNC[C@H](C)C2)n1` [Example 485, 3,3-Difluoro-N-[2-fluoro-6-methyl-5-[[3-[2-[[(3S,5R)-5-methyl-3-piperidyl]amino]pyrimidin-4-yl]-2-pyridyl]oxy]-1-naphthyl]butane-1-sulfonamide hydrochloride], for which, for the setting “Table 2”, the pIC50 is 8.22. Same read-out and setting: with `Cc1ccc2c(NS(=O)(=O)CC(C)C(F)(F)F)c(F)ccc2c1Oc1ncccc1-c1ccnc(N[C@H]2CCCNC2)n1` (single isomer, unassigned) [Example 454, hydrochloride] the figure was 7.62. For the compound `CCCCS(=O)(=O)Nc1cccc2c(Oc3ncccc3-c3ccnc(N[C@H]4CCCNC4)n3)c(C)ccc12` [Example 136, (S)—N-(6-Methyl-5-((3-(2-(piperidin-3-ylamino)pyrimidin-4-yl)pyridin-2-yl)oxy)naphthalen-1-yl) butane-1-sulfonamide], the pIC50 (Table 1) is 6.53. Take `Cc1ccc2c(NC[C@@H](C)C#N)cccc2c1Oc1ncccc1-c1ccnc(N[C@H]2CCCNC2)n1` (single isomer, unassigned) [Example 414, hydrochloride]: the pIC50 (Table 2) is 7.23.

`O=S(=O)(Cc1ccccc1)Nc1cccc2c(Oc3ncccc3-c3ccnc(N[C@H]4CCCNC4)n3)cccc12` [Example 452, (S)-1-Phenyl-N-(5-((3-(2-(piperidin-3-ylamino)pyrimidin-4-yl)pyridin-2-yl)oxy)naphthalen-1-yl)methanesulfonamide]: the pIC50 (Table 2) was 7.72. For `Cc1ccc2c(NS(=O)(=O)CC(F)(F)F)cccc2c1Oc1ncccc1-c1ccnc(N[C@H]2CCCNC2)n1` [Example 122, (S)-2,2,2-Trifluoro-N-(6-methyl-5-((3-(2-(piperidin-3-ylamino)pyrimidin-4-yl)pyridin-2-yl)oxy)naphthalen-1-yl)ethane-1-sulfonamide hydrochloride], the pIC50 (Table 1) is 6.98. Consider `Cc1ccc2c(N3CCC(O)C3)cccc2c1Oc1ncccc1-c1ccnc(N[C@H]2CCCNC2)n1` (single isomer, unassigned) [Example 408], for which the pIC50 (Table 2) is 6.33. Regarding `Cc1ccc2c(NC(=O)c3ccccc3)cccc2c1Oc1ncccc1-c1ccnc(N[C@H]2CCCNC2)n1` [Example 115, (S)—N-(6-Methyl-5-((3-(2-(piperidin-3-ylamino)pyrimidin-4-yl)pyridin-2-yl)oxy)naphthalen-1-yl)benzamide hydrochloride], the pIC50 (Table 1) was 6.58. Regarding `CCCCS(=O)(=O)Nc1c(F)ccc2c(Oc3ncccc3-c3ccnc(N[C@H]4CCCNC4)n3)c(C)ccc12` [Example 397, (S)—N-(2-Fluoro-6-methyl-5-((3-(2-(piperidin-3-ylamino)pyrimidin-4-yl)pyridin-2-yl)oxy)naphthalen-1-yl)butane-1-sulfonamide hydrochloride], the pIC50 (Table 2) is 7.47. As to `CCC1CC(=O)N(c2cccc3c(Oc4ncccc4-c4ccnc(N[C@H]5CCCNC5)n4)c(C)ccc23)C1` (single isomer, unassigned) [Example 356], the pIC50 (Table 1) was 6.55. With `Cc1cc(NS(=O)(=O)CCC(F)(F)F)c2ccccc2c1Oc1ncccc1-c1ccnc(N[C@H]2CCCNC2)n1` [Example 478, (S)-3,3,3-Trifluoro-N-(3-methyl-4-((3-(2-(piperidin-3-ylamino)pyrimidin-4-yl)pyridin-2-yl)oxy)naphthalen-1-yl)propane-1-sulfonamide], the pIC50 (Table 2) is 6.93. Consider `Cc1ccc2c(NC(=O)[C@@H]3CC3(F)F)cccc2c1Oc1ncccc1-c1ccnc(N[C@H]2CCCNC2)n1` (single isomer, unassigned) [Example 180], for which the pIC50 (Table 1) was 6.67.

Regarding `Cc1ccc2c(NC(=O)[C@@H]3C[C@@]3(F)c3ccccc3)cccc2c1Oc1ncccc1-c1ccnc(N[C@H]2CCCNC2)n1` (single isomer, unassigned) [Example 226], the pIC50 (Table 1) was 6.65. `CC/C(F)=C/S(=O)(=O)Nc1c(F)ccc2c(Oc3ncccc3-c3ccnc(N[C@H]4CCCNC4)n3)c(C)ccc12` [Example 457, (S,Z)-2-Fluoro-N-(2-fluoro-6-methyl-5-((3-(2-(piperidin-3-ylamino)pyrimidin-4-yl)pyridin-2-yl)oxy)naphthalen-1-yl)but-1-ene-1-sulfonamide hydrochloride]: the pIC50 (Table 2) is 6.98. On to `Cc1ccc2c(NS(=O)(=O)CC(F)(F)F)c(F)ccc2c1Oc1ncccc1-c1ccnc(N[C@H]2CCCNC2)n1` [Example 362, (S)-2,2,2-Trifluoro-N-(2-fluoro-6-methyl-5-((3-(2-(piperidin-3-ylamino)pyrimidin-4-yl)pyridin-2-yl)oxy)naphthalen-1-yl)ethanesulfonamide], for which, for the setting “Table 1”, the pIC50 is 7.63. As for `Cc1ccc2c(NS(=O)(=O)Cc3cccc(F)c3F)c(F)ccc2c1Oc1ncccc1-c1ccnc(N[C@H]2CCCNC2)n1` [Example 189, (S)-1-(2,3-Difluorophenyl)-N-(2-fluoro-6-methyl-5-((3-(2-(piperidin-3-ylamino)pyrimidin-4-yl)pyridin-2-yl)oxy)naphthalen-1-yl)methanesulfonamide], the pIC50 (Table 1) is 8.29.

Take `Cc1ccc2c(NS(=O)(=O)C3CCCC3)cccc2c1Oc1ncccc1-c1ccnc(N[C@H]2CCCNC2)n1` [Example 120, (S)—N-(6-Methyl-5-((3-(2-(piperidin-3-ylamino)pyrimidin-4-yl)pyridin-2-yl)oxy)naphthalen-1-yl)cyclopentanesulfonamide hydrochloride]: the pIC50 (Table 1) is 6.74.

In the case of `CCCS(=O)(=O)Nc1cccc2c(Oc3ncccc3-c3ccnc(N[C@H]4CC[C@H](C)NC4)n3)c(C)ccc12` (single isomer, unassigned) [Example 196], the pIC50 (Table 1) was 6.79. Turning to `Cc1ccc2c(NCC(C)C#N)cccc2c1Oc1ncccc1-c1ccnc(N[C@H]2CCCNC2)n1` (single isomer, unassigned) [Example 382], where the note is “Table 1”, the pIC50 was 7.21.

(Values after patent US10968203B2, “Pyrimidinyl-pyridyloxy-naphthyl compounds and methods of treating IRE1-related diseases and disorders” (Genentech, Inc., priority 2017, dated 2021).)
